Patent US20260206761A1, “HETEROARYL-TRIAZOLE COMPOUNDS AS PESTICIDES” (Bayer Aktiengesellschaft, priority 2019, published 2026)

Key:
Assay type in all cases: in vivo
[1] = test system: larvae of the southern green stink bug (Nezara viridula); experiment: Nezara viridula spray test; conditions: 96 h, after 4 days; for mortality at 100 g/ha: application rate 100 g/ha; for mortality at 500 g/ha: application rate 500 g/ha
How it was run: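 Larva-infested barley (Hordeum vulgare) plants received a spray of test solution prepared from an acetone/DMF concentrate diluted in emulsifier-containing water (1000 ppm). Percent kill read 4 days later; 0% means no stink bugs dead.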

[2] = test system: green peach aphid (Myzus persicae); experiment: Myzus persicae oral test; conditions: 120 h, application rate 4 ppm, after 5 days
How it was run: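 Readout: % mortality at day 5, where 100% = all aphids dead and 0% = none dead. Feeding via parafilm membrane over compound in IPL41 medium (33%+15% sugar); mixed-age population. Stock in acetone (1:100 w/w), water-diluted.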

[3] = test system: adult cat fleas (Ctenocephalides felis); experiment: Ctenocephalides felis in-vitro contact test, adult cat flea; conditions: application rate 5 μg/cm^2 (=500 g/ha), after 48 hours, read-out: activity (efficacy: fleas dead or moribund)
Description: Ctenocephalides felis—In-Vitro Contact Tests Adult Cat Flea
9 mg compound is solved in 1 mL acetone and diluted with acetone to the desired concentration. 250 μL of the test solution is filled in 25 mL glass test tubes and homogeneously distributed on the inner walls by rotation and tilting on a shaking device (2 h at 30 rpm). With a compound concentration of 900 ppm, an inner surface of 44.7 cm^2 and a homogeneous distribution, a dose of […] is achieved.
After the solvent has evaporated, each test tube is filled with 5-10 adult cat fleas (Ctenocephalides felis), closed with a perforated lid and incubated in a lying position at room temperature and relative humidity. After 48 hours efficacy is determined. The fleas are patted on the ground of the tubes and are incubated on a heating plate at 45-50° C. for at most 5 minutes. Immotile or uncoordinated moving fleas, which are not able to escape the heat by climbing upwards, are marked as dead or moribund.
An efficacy of 100% means all fleas are dead or moribund; 0% means no fleas are dead or moribund.

[4] = test system: green peach aphid (Myzus persicae); experiment: Myzus persicae spray test; conditions: 120 h, after 5 days; for mortality at 500 g/ha: application rate 500 g/ha
Description: Myzus persicae—Spray Test
Solvent: 78.0 parts by weight acetone • 1.5 parts by weight dimethylformamide
Emulsifier: alkylarylpolyglycol ether
To produce a suitable preparation of active compound, 1 part by weight of active compound is mixed with the stated amount of solvents and is diluted with water, containing an emulsifier concentration of 1000 ppm, to the desired concentration. Further test concentrations are prepared by dilution with emulsifier containing water.
Chinese cabbage (Brassica pekinensis) leaf disks infected with all instars of the green peach aphid (Myzus persicae), are sprayed with a preparation of the active ingredient of the desired concentration.
After 5 days mortality in % is determined. 100% means all aphids have been killed and 0% means none of the aphids have been killed.

[5] = test system: larvae of the banded cucumber beetle (Diabrotica balteata); experiment: Diabrotica balteata spray test; conditions: 168 h, after 7 days, read-out: activity (efficacy: seedlings grown); for pest or weed control at 100 g/ha: application rate 100 g/ha (=32 pg/well); for pest or weed control at 500 g/ha: application rate 500 g/ha (=160 pg/well)
How it was run: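 Read-out is % efficacy at day 7, 0% meaning no seedling growth and 100% growth equal to uninfested untreated controls. Test solutions (acetone/DMF concentrate diluted with water carrying 1000 ppm emulsifier) were sprayed onto 1-day-germinated wheat seeds, 5 per well, before infestation with 10-20 larvae.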

[6] = test system: fall armyworm larvae (Spodoptera frugiperda); experiment: Spodoptera frugiperda spray test; conditions: 168 h, read-out: activity (mortality)
How it was run: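 Larvae of fall armyworm placed on dried maize leaf sections previously sprayed with emulsified compound (acetone/DMF solvent, water with 1000 ppm emulsifier). Percent of caterpillars killed recorded on day 7, 0–100% scale.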

[7] = test system: adult unfed cat fleas (Ctenocephalides felis); experiment: Ctenocephalides felis oral test; conditions: 48 h, read-out: activity (mortality)
How it was run: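 About 20 adult unfed fleas fed through parafilm on cattle blood containing compound (DMSO stock diluted in blood), blood held at 37 °C and fleas at room temperature. Mortality (%) scored after 2 days.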

[8] = test system: adult engorged female ticks (Rhipicephalus microplus); experiment: Rhipicephalus (Boophilus) microplus injection test; conditions: 168 h, egg deposition after 7 days, read-out: activity (efficacy: infertile eggs); for pest or weed control at 4 pg: application rate 4 pg/animal; for pest or weed control at 0.02 mg: application rate 20 μg/animal
How it was run: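 Compound in DMSO (10 mg per 0.5 mL, then diluted with DMSO to test concentration); 1 μL injected into the abdomen of each of five engorged females, then held in a climate chamber. Fertile egg deposition checked at 7 days; efficacy 100% = all eggs infertile, 0% = all fertile.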

[9] = test system: Aedes aegypti strain MONHEIM; experiment: Aedes aegypti test (AEDSAE surface treatment & contact assay); conditions: 24 hours after contact, read-out: efficacy (mortality); for mortality at 4 mg/m2: surface concentration 4 mg/m^2, exposure 30 minutes
Description: Aedes aegypti Test (AEDSAE Surface Treatment & Contact Assay)
Solvent: Aceton+2000 ppm rapeseed oil methyl ester (RME)
In order to produce a sufficient, active ingredient containing solution it is necessary to solve the test compound in the solvent-mix (acetone at 2 mg/ml/RME 2000 ppm). This solution is pipetted onto a glazed tile and after evaporation of the acetone, adult mosquitoes of the species Aedes aegypti strain MONHEIM are placed onto the dried surface. The exposure time is 30 minutes. Mortality in percent (%) is determined 24 hours after contact of the insects to the treated surface. 100% mortality means that all tested insects are dead, whereas 0% means that no insect died.

[10] = test system: Rhipicephalus microplus larvae (strain Parkhurst, resistant against synthetic pyrethroids); experiment: Rhipicephalus (Boophilus) microplus in-vitro contact test, larval cattle tick; conditions: after 48 hours, read-out: activity (efficacy: larvae dead or moribund); for pest or weed control at 100 g/ha: application rate 1 pg/cm^2 (=100 g/ha); for pest or weed control at 500 g/ha: application rate 5 pg/cm^2 (=500 g/ha)
How it was run: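 Larvae (20-50 per tube) exposed to dry compound film on glass tube walls, 5 μg/cm^2 at 900 ppm, applied from acetone. After 48 h at 27° C./85% RH, tubes tapped and negative geotaxis scored; efficacy as percent dead or moribund larvae.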

[11] = test system: adult brown dog ticks (Rhipicephalus sanguineus); experiment: Rhipicephalus sanguineus in-vitro contact test, adult brown dog ticks; conditions: after 48 hours, read-out: activity (efficacy: ticks dead or moribund); for pest or weed control at 100 g/ha: application rate 1 pg/cm^2 (=100 g/ha); for pest or weed control at 5 µg/cm2, 500 g/ha: application rate 5 μg/cm^2 (=500 g/ha)
How it was run: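 Efficacy is % of adult ticks dead or moribund 48 h after confinement at room temperature in tubes wall-coated from acetone (5 μg/cm² at 900 ppm). Scoring by heat challenge at 45-50 °C up to 5 min; immotile or uncoordinated ticks failing to climb count as affected.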

For C[C@H](NC(=O)c1cc(Cl)cc(C2(C#N)CC2)c1)c1ncnn1-c1cc(C#N)ccn1 [II-4], the mortality at 100 g/ha [1] was 100%, the mortality at 500 g/ha [1] was 100% and the mortality at 4 ppm [2] was 100%. The pest or weed control at 5 µg/cm2 [3] was 80%, the mortality at 500 g/ha [4] was 90% and the pest or weed control at 100 g/ha [5] was 100%. The pest or weed control at 500 g/ha [5] was 100%, the mortality at 100 g/ha [6] was 83% and the mortality at 100 ppm [7] was 100%. The pest or weed control at 4 pg [8] was 100%, the pest or weed control at 0.02 mg [8] was 100% and the mortality at 4 mg/m2 [9] was 80 to 100%. For the same compound, the mortality at 20 mg/m2 ([9]; surface concentration 20 mg/m^2, exposure 30 minutes) was 80 to 100%.

With Cc1nc([C@H](C)NC(=O)c2cc(Cl)cc(S(=O)(=O)C(F)(F)F)c2)n(-c2ccc(C#N)cn2)n1 [II-15, 3-chloro-N-{(1S)-1-[1-(5-cyanopyridin-2-yl)-3-methyl-1H-1,2,4-triazol-5-yl]ethyl}-5-[(trifluoromethyl)sulfonyl]benzamide] the mortality at 500 g/ha [1] was 100%, the mortality at 4 ppm [2] was 100% and the pest or weed control at 5 µg/cm2 [3] was 90%. For the same compound, the mortality at 500 g/ha [4] was 90%, the pest or weed control at 100 g/ha [5] was 100% and the pest or weed control at 500 g/ha [5] was 100%. It also gave a pest or weed control at 100 g/ha [10] of 100%, a pest or weed control at 500 g/ha [10] of 100% and a mortality at 100 g/ha [6] of 100%. It also gave a mortality at 500 g/ha [6] of 100%, a mortality at 100 ppm [7] of 100% and a pest or weed control at 4 pg [8] of 100%. It also gave a pest or weed control at 0.02 mg [8] of 100%.

C[C@H](NC(=O)c1cc(C#N)cc(S(C)(=O)=O)c1)c1ncnn1-c1ccccn1 [II-31] showed a mortality at 100 g/ha [1] of 100%, a mortality at 500 g/ha [1] of 100% and a mortality at 4 ppm [2] of 100%. For the same compound, the pest or weed control at 5 µg/cm2 [3] was 100%, the pest or weed control at 100 g/ha [11] was 100% and the pest or weed control at 100 g/ha [5] was 100%. It also gave a pest or weed control at 500 g/ha [5] of 100%, a mortality at 500 g/ha [6] of 83% and a mortality at 100 ppm [7] of 100%. It also gave a pest or weed control at 4 pg [8] of 100% and a pest or weed control at 0.02 mg [8] of 100%.

C[C@H](NC(=O)c1cc(Br)cc(S(C)(=O)=O)c1)c1ncnn1-c1ccc(Cl)cn1 [II-40] gave a mortality at 100 g/ha [1] of 100%, a pest or weed control at 5 µg/cm2 [3] of 100% and a pest or weed control at 100 g/ha [11] of 100%. The pest or weed control at 5 µg/cm2, 500 g/ha [11] was 100%, the pest or weed control at 100 g/ha [10] was 100% and the pest or weed control at 500 g/ha [10] was 100%. It also gave a mortality at 100 g/ha [6] of 100%, a mortality at 100 ppm [7] of 100% and a pest or weed control at 4 pg [8] of 100%. The pest or weed control at 0.02 mg [8] was 100% and the mortality at 4 mg/m2 [9] was 80 to 100%.

C[C@H](NC(=O)c1cc(Cl)cc(S(C)(=O)=O)c1)c1ncnn1-c1ncc(I)cn1 [II-44] was tested, and the mortality at 100 g/ha [1] was 100%, the mortality at 4 ppm [2] was 100% and the pest or weed control at 5 µg/cm2 [3] was 100%. For the same compound, the pest or weed control at 100 g/ha [10] was 100%, the pest or weed control at 500 g/ha [10] was 100% and the mortality at 100 g/ha [6] was 100%. For the same compound, the mortality at 100 ppm [7] was 100%, the pest or weed control at 4 pg [8] was 100% and the pest or weed control at 0.02 mg [8] was 100%.

For Cc1nc([C@H](C)NC(=O)c2cc(C(F)F)cc(C3CC3)c2)n(-c2ccc(C#N)cn2)n1 [II-61], the mortality at 100 g/ha [1] was 100%, the mortality at 4 ppm [2] was 100% and the pest or weed control at 5 µg/cm2 [3] was 100%. For the same compound, the mortality at 100 g/ha ([4]; application rate 100 g/ha) was 90%, the pest or weed control at 100 g/ha [11] was 100% and the pest or weed control at 5 µg/cm2, 500 g/ha [11] was 100%. The pest or weed control at 100 g/ha [5] was 100%, the pest or weed control at 100 g/ha [10] was 100% and the pest or weed control at 500 g/ha [10] was 100%. It also gave a mortality at 100 g/ha [6] of 83% and a pest or weed control at 4 pg [8] of 100%.
